# In the supplement of paper PMC10307832:
# Assays:
# Assay in all cases: relative viability (nuclei count vs DMSO), 5 days (fraction); higher = more cells survive
# [1] = compound: CC1=C(C=C(C=C1)NC(=O)C2=CC(=CC=C2)C(C)(C)C#N)NC3=CC4=C(C=C3)N=CN(C4=O)C [AZ628] + C[C@@H](Oc1cc(-c2cnn(C3CCNCC3)c2)cnc1N)c1c(Cl)ccc(F)c1Cl [Crizotinib] (partner 1 µM)
# Outline: (§1)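 Relative viability equals treated-well nuclei counts divided by vehicle-well nuclei counts. Counts came from 4× images of lung cancer cell lines grown in 1536-well plates for 5 days after pin-tool dosing on the day after seeding. Dosing used one drug alone or a fixed anchor-drug dose plus five library-drug doses (not always all listed) in √10 steps, and values are medians of duplicate plates.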
# [2] = compound: C[As](C)SC[C@H](NC(=O)CC[C@H](N)C(=O)O)C(=O)NCC(=O)O [Darinaparsin] + CC(C)C[C@H](NC(=O)[C@H](Cc1ccccc1)NC(=O)c1cnccn1)B(O)O [Bortezomib] (partner 0.002 µM)
# Outline: as §1
# [3] = compound: C1CC2=C(C1)C=C(C=C2)OC3=NC(=C4C(=N3)N(C=N4)CC5=CC=C(C=C5)C6=CC=CC=C6)N[C@@H](CC7=CC=CC=C7)CO [QS11] + N=C(N)NC(=N)NCCc1ccccc1 [Phenformin] (partner 250 µM)
# Outline: as §1
# [4] = compound: C1CC2=C(C1)C=C(C=C2)OC3=NC(=C4C(=N3)N(C=N4)CC5=CC=C(C=C5)C6=CC=CC=C6)N[C@@H](CC7=CC=CC=C7)CO [QS11] + CC(=O)c1c(C)c2cnc(Nc3ccc(N4CCNCC4)cn3)nc2n(C2CCCC2)c1=O [Palbociclib] (partner 0.5 µM)
# Outline: as §1
Cell Line,relative viability ([1]; first compound 0.08 µM),relative viability ([1]; first compound 0.253 µM),relative viability ([1]; first compound 0.8 µM),relative viability ([1]; first compound 2.53 µM),relative viability ([1]; first compound 8 µM),relative viability ([2]; first compound 0.08 µM),relative viability ([2]; first compound 0.8 µM),relative viability ([2]; first compound 2.53 µM),relative viability ([2]; first compound 8 µM),relative viability ([3]; first compound 0.08 µM),relative viability ([3]; first compound 0.253 µM),relative viability ([3]; first compound 0.8 µM),relative viability ([3]; first compound 2.53 µM),relative viability ([3]; first compound 8 µM),relative viability ([4]; first compound 0.08 µM),relative viability ([4]; first compound 0.253 µM),relative viability ([4]; first compound 0.8 µM),relative viability ([4]; first compound 2.53 µM),relative viability ([4]; first compound 8 µM)
NCI-H647,1.24,1.03,1.04,0.984,0.793,1.79,1.17,0.802,1.17,0.372,0.57,0.514,0.478,0.527,0.412,0.367,0.394,0.325,0.394
NCI-H650,0.771,0.73,0.553,0.68,0.599,0.881,0.894,0.728,0.776,0.428,0.486,0.475,0.392,0.399,0.328,0.34,0.304,0.286,0.327
NCI-H661,0.975,–,–,1.1,1.01,0.975,0.853,0.92,0.889,0.221,0.297,0.273,0.297,0.261,0.379,0.374,0.332,0.402,0.34
NCI-H727,0.706,0.523,0.452,0.368,0.258,0.912,0.742,0.963,0.986,0.88,0.442,0.459,0.557,0.372,0.694,0.73,0.698,0.637,0.699
NCI-H838,0.84,0.842,0.719,0.747,0.655,0.976,0.766,0.679,0.811,0.629,0.468,0.519,0.517,0.531,0.213,0.187,0.191,0.223,0.213
